# Measured values: patent US10980238B2, “Alkali metal salt for use in treatment of varroa destructor mite infestation of honey bees” (Universität Hohenheim, priority 2015, dated 2021)
# “And” between values parts separate entries of the source, which are not always exact repeats. Identical values can stand only once. Like-named read-outs stand apart in the source and are kept apart here.
# How the values were obtained:
# bees [1] = conditions: for impact on bee viability: 4 mM, 7-day treatment period, data not shown; for Number of dead bees, Day 1 / Number of dead bees, Day 2 / Number of dead bees, Day 3 / Number of dead bees, Day 4 / Number of dead bees, Day 5 / Number of dead bees, Day 6 / Number of dead bees, Day 7: Li-salt 25 mM in sucrose syrup for 7 days; for Number of dead bees, Day 1 / Number of dead bees, Day 2 / Number of dead bees, Day 3 / Number of dead bees, Day 4 / Number of dead bees, Day 5 / Number of dead bees, Day 6 / Number of dead bees, Day 7 / Number of dead bees, Sum: 50 bees per cage, mean of three replicates; for Number of dead bees, Sum: Li-salt 25 mM in sucrose syrup, days 1-7
# Source text: (§1) The bees were fed with Li-salt/sucrose solutions for 7 days. Survival rate of bees and mites were monitored daily and dead bees or mites were removed.
# Varroa destructor = conditions: for effect on mites during the 7-day treatment period: 4 mM, data not shown; for Number of dead mites, Day 1 / Number of dead mites, Day 2 / Number of dead mites, Day 3 / Number of dead mites, Day 4 / Number of dead mites, Day 5 / Number of dead mites, Day 6 / Number of dead mites, Day 7: Li-salt 25 mM in sucrose syrup for 7 days; for Number of dead mites, Day 1 / Number of dead mites, Day 2 / Number of dead mites, Day 3 / Number of dead mites, Day 4 / Number of dead mites, Day 5 / Number of dead mites, Day 6 / Number of dead mites, Day 7 / Number of dead mites, Sum: 25 mites per cage, mean of three replicates; for Number of dead mites, Sum: Li-salt 25 mM in sucrose syrup, days 1-7
# Source text: as §1
# bees [2] = assay: Experiment 4 cage test of MgCl2 (50 bees, 20 mites): bee health; assay type: in vivo, Apis mellifera; conditions: 100 mM in sucrose syrup
# Protocol: To test the activity of bivalent ions we dissolved MgCl2 in sucrose syrup at a final concentration of 100 mM. 2 cages of 50 bees to which 20 mites were added were fed with sucrose syrup only and syrup containing 100 mM MgCl2.
# bees [3] = conditions: 50 bees per cage; for Number of dead bees, Day 1 / Number of dead bees, Day 2 / Number of dead bees, Day 3 / Number of dead bees, Day 4 / Number of dead bees, Day 5 / Number of dead bees, Day 6 / Number of dead bees, Day 7: 25 mM in 70% sucrose for seven days; for Number of dead bees, Day 1 / Number of dead bees, Day 2 / Number of dead bees, Day 3 / Number of dead bees, Day 4 / Number of dead bees, Day 5 / Number of dead bees, Day 6 / Number of dead bees, Day 7 / Number of dead bees, Sum: mean of 6 cages (LiCl) or 3 cages; for Number of dead bees, Sum: days 1-7
# Protocol: (§2) In a further experiment LiCl, NaCl and MgCl2 were selected and their acaricidal activity compared. The experiment was performed in cages of 50 bees, to each of which 25 mites were added. Bees in control cages received sucrose only. LiCl, NaCl or MgCl2 were added to 70% sucrose solutions at a final concentration of 25 mM each and fed to the bees for seven days. Survival rate of bees and mites were monitored daily. Dead bees and mites were removed from the cages.
# (§3) The numbers represent mean values derived from 6 cages. […] Numbers for NaCl, MgCl2 and control represent mean values derived from 3 separate cages.
# Varroa mites = assay: Experiment 5 cage comparison of LiCl, NaCl and MgCl2: dead mites; assay type: in vivo, Varroa destructor; conditions: for Number of dead mites, Day 1 / Number of dead mites, Day 2 / Number of dead mites, Day 3 / Number of dead mites, Day 4 / Number of dead mites, Day 5 / Number of dead mites, Day 6 / Number of dead mites, Day 7 / Number of dead mites, Sum: 25 mites per cage, mean of 6 cages (LiCl) or 3 cages; for Number of dead mites, Sum: 25 mM in 70% sucrose, days 1-7
# Protocol: as §2, §3
# [4] = 25 mM in 70% sucrose for seven days
Structure (SMILES),impact on bee viability (bees [1]),"Number of dead bees, Day 1 (bees [1])","Number of dead bees, Day 2 (bees [1])","Number of dead bees, Day 3 (bees [1])","Number of dead bees, Day 4 (bees [1])","Number of dead bees, Day 5 (bees [1])","Number of dead bees, Day 6 (bees [1])","Number of dead bees, Day 7 (bees [1])","Number of dead bees, Sum (bees [1])",effect on mites during the 7-day treatment period (Varroa destructor),"Number of dead mites, Day 1 (Varroa destructor)","Number of dead mites, Day 2 (Varroa destructor)","Number of dead mites, Day 3 (Varroa destructor)","Number of dead mites, Day 4 (Varroa destructor)","Number of dead mites, Day 5 (Varroa destructor)","Number of dead mites, Day 6 (Varroa destructor)","Number of dead mites, Day 7 (Varroa destructor)","Number of dead mites, Sum (Varroa destructor)","Number of dead bees, Day 1 (bees [3])","Number of dead bees, Day 2 (bees [3])",also measured
"O=S(=O)([O-])[O-].[Li+].[Li+] [Li-sulfate, lithium sulfate]",without a significant negative impact on bee viability,0.0,0.0,0.0,1.0,3.7,1.7,0.0,6.3,killed all mites,0.7,18.0,5.7,0.7,0.0,0.0,0.0,25.0,–,–,–
"O=C([O-])CC(O)(CC(=O)[O-])C(=O)[O-].[Li+].[Li+].[Li+] [Li-citrate, lithium citrate]",without a significant negative impact on bee viability,0.0,0.0,0.3,0.0,0.7,1.7,0.3,3.0,killed all mites,0.3,10.0,14.7,0.0,0.0,0.0,0.0,25.0,–,–,–
[Cl-].[Cl-].[Mg+2] [MgCl2],–,–,–,–,–,–,–,–,–,–,–,–,–,–,–,–,–,–,0.0,18.0,"effect on bee health (bees [2]): impair bee health substantially; Number of dead bees, Day 3 (bees [3]): 18.3; Number of dead bees, Day 4 (bees [3]): 9.3; Number of dead bees, Day 5 (bees [3]): 4.3; Number of dead bees, Day 6 (bees [3]): 0.0; Number of dead bees, Day 7 (bees [3]): 0.0; Number of dead bees, Sum (bees [3]; 25 mM in 70% sucrose): 50.0; time after which all bees were dead (bees [3]; 25 mM in 70% sucrose): 5 days; Number of dead mites, Day 1 (Varroa mites; [4]): 0.3; Number of dead mites, Day 2 (Varroa mites; [4]): 1.0; Number of dead mites, Day 3 (Varroa mites; [4]): 1.0; Number of dead mites, Day 4 (Varroa mites; [4]): 3.7; Number of dead mites, Day 5 (Varroa mites; [4]): 0.7; Number of dead mites, Day 6 (Varroa mites; [4]): 0.0; Number of dead mites, Day 7 (Varroa mites; [4]): 0.0; Number of dead mites, Sum (Varroa mites): 6.7"
[Cl-].[Na+] [NaCl],–,–,–,–,–,–,–,–,–,–,–,–,–,–,–,–,–,–,0.0,0.0,"Number of dead bees, Day 3 (bees [3]): 0.0; Number of dead bees, Day 4 (bees [3]): 0.3; Number of dead bees, Day 5 (bees [3]): 0.0; Number of dead bees, Day 6 (bees [3]): 0.0; Number of dead bees, Day 7 (bees [3]): 1.3; Number of dead bees, Sum (bees [3]; 25 mM in 70% sucrose): 2 and 1.7; acaricidal effect (Varroa mites; [4]): fails to exhibit an acaricidal effect; Number of dead mites, Day 1 (Varroa mites; [4]): 0.0; Number of dead mites, Day 2 (Varroa mites; [4]): 0.3; Number of dead mites, Day 3 (Varroa mites; [4]): 0.0; Number of dead mites, Day 4 (Varroa mites; [4]): 0.0; Number of dead mites, Day 5 (Varroa mites; [4]): 0.3; Number of dead mites, Day 6 (Varroa mites; [4]): 0.7; Number of dead mites, Day 7 (Varroa mites; [4]): 1.0; Number of dead mites, Sum (Varroa mites): 2 and 2.3"
"O=C([O-])[O-].[Li+].[Li+] [Li-carbonate, lithium carbonate]",without a significant negative impact on bee viability,0.7,0.0,0.0,0.0,0.0,0.3,0.7,1.7,killed all mites,0.3,3.0,20.0,1.7,0.0,0.0,0.0,25.0,–,–,–
"CC(O)C(=O)[O-].[Li+] (centres unmarked) [Li-lactate, lithium lactate]",without a significant negative impact on bee viability,0.3,0.0,0.0,0.7,2.0,0.3,1.7,5.0,killed all mites,0.7,14.0,6.3,4.0,0.0,0.0,0.0,25.0,–,–,–
